Results as given in patent US9725432B2, “Pyrimidine derivatives for the treatment of bacterial diseases” (JANSSEN R&D IRELAND, priority 2012, dated 2017).
≈ marks a conversion by molar mass, not a printed value.

What was measured:
Staphylococcus aureus = assay: MIC determination of compounds on ECO/PAE/STA in microplates; assay type: cell-based; details: lowest concentration with no growth (90% inhibition of growth), 18-20 hours at 37° C., visual, strain not given

Row | melting point | MIC90 (Staphylococcus aureus) | SMILES
1 | 155 to 164 °C | 0.125 µg/mL (≈ 0.303 µM) | CC(C)(C)CN1CCN(c2nc(-c3ccncc3)ncc2-c2cccc(C#N)c2)CC1 [Compound 74]
2 | 165 °C | 0.125 µg/mL (≈ 0.276 µM) | COc1ccc(-c2ncc(-c3cccc(C#N)c3)c(C3CCN(CC(C)(C)C#N)CC3)n2)cn1 [Compound 85]
3 | 101 to 122 °C | 2 µg/mL (≈ 4 µM) | CC(C)(C#N)CN1CCC(c2nc(-c3ccc(S(C)(=O)=O)cc3)ncc2-c2cccc(C#N)c2)CC1 [Compound 87]
4 | 171 °C | 0.125 µg/mL (≈ 0.284 µM) | CC(C)(C#N)CN1CCC(c2nc(-c3ccc(F)cc3)ncc2-c2cccc(C#N)c2)CC1 [Compound 80]
